Reference: ChEMBL document CHEMBL4689842, “EUbOPEN Chemogenomics Library wave 1” (2021)

What was measured:
Assay type in all cases: toxicity, cell-based
Fibroblast = test: Incucyte cell viability with human fibroblast; conditions: 10 µM, compound concentration 10 uM
U2OS = test: Incucyte cell viability with U2OS; conditions: human, 10 µM, compound concentration 10 uM
HEK-293T = test: Incucyte cell viability with HEK293T; conditions: human, 10 µM, compound concentration 10 uM
[1] = 0 h, replicate number 1, timepoint 0 hours
[2] = 6 h, replicate number 2, timepoint 6 hours
[3] = 12 h, replicate number 1, timepoint 12 hours
[4] = 12 h, replicate number 2, timepoint 12 hours
[5] = 18 h, replicate number 1, timepoint 18 hours
[6] = 18 h, replicate number 2, timepoint 18 hours
[7] = 24 h, replicate number 1, timepoint 24 hours
[8] = 24 h, replicate number 2, timepoint 24 hours
[9] = 6 h, replicate number 1, timepoint 6 hours
[10] = 0 h, replicate number 2, timepoint 0 hours
Note: filed as whole numbers so only -1 and 0 and 1 occur.

Compound | Growth Rate (Fibroblast; [1]) | Growth Rate (Fibroblast; [3]) | Growth Rate (Fibroblast; [4]) | Growth Rate (Fibroblast; [5]) | Growth Rate (Fibroblast; [6]) | Growth Rate (Fibroblast; [7]) | Growth Rate (U2OS; [1]) | Growth Rate (U2OS; [2]) | Growth Rate (U2OS; [3]) | Growth Rate (U2OS; [5]) | Growth Rate (U2OS; [7]) | Growth Rate (U2OS; [8]) | Growth Rate (HEK-293T; [1]) | Growth Rate (HEK-293T; [9]) | Growth Rate (HEK-293T; [3]) | Growth Rate (HEK-293T; [5]) | Growth Rate (HEK-293T; [7]) | Growth Rate (Fibroblast; [9]) | Growth Rate (U2OS; [9]) | Growth Rate (U2OS; [4]) | also measured
COc1cccc(OC)c1-c1cc(C(=O)NC2(C(=O)O)C3CC4CC(C3)CC2C4)nn1-c1ccnc2cc(Cl)ccc12 (stereo unspecified) [REMINERTANT] | 0 | 1 | 0 | 1 | 0 | 1 | 1 | 1 | 1 | 0 | 0 | 1 | 0 | 0 | 0 | 0 | 0 |  |  |  | Growth Rate (Fibroblast; [2]): 1; Growth Rate (Fibroblast; [8]): 0; Growth Rate (U2OS; [6]): 1; Growth Rate (HEK-293T; [2]): 1; Growth Rate (HEK-293T; [4]): 1
CC(C)Oc1ccc(-c2nn([C@@H](C)c3oc4ccc(F)cc4c(=O)c3-c3cccc(F)c3)c3ncnc(N)c23)cc1F [UMBRALISIB] |  | 1 | 0 | 1 |  | 1 | 0 | 1 | 0 | 0 | 0 | 1 | 1 | 0 | 0 | 0 | 0 | 1 | 0 | 1 | Growth Rate (Fibroblast; [2]): 0; Growth Rate (U2OS; [6]): 1; Growth Rate (HEK-293T; [10]): 0
CCN(CC)CCCCC1CCN(CC(=O)N2c3ccccc3C(=O)Nc3cccnc32)CC1 | 0 | 1 |  | 1 |  | 1 | 0 | 0 | 1 | 1 | 1 | 0 | 0 | 1 | 1 | 1 | 1 |  |  |  | Growth Rate (Fibroblast; [10]): 1; Growth Rate (U2OS; [6]): 0
N#Cc1c(N)nc(SCC(N)=O)c(C#N)c1-c1ccc(OCC2CC2)cc1 | 0 |  | 1 |  | 1 | 1 | 0 | 0 | 1 | 1 | 1 | 0 | 0 | 1 | 1 | 0 | 0 |  |  |  | Growth Rate (Fibroblast; [2]): 0; Growth Rate (HEK-293T; [4]): 0
Cc1cc(NC(=O)Nc2ccc(N(C)C)cc2)c2cc(F)cc(F)c2n1 | 1 | 1 |  | 1 |  | 1 |  |  | 0 | 0 | 0 |  | 0 | 0 | 0 | 0 | 0 | 0 | 0 | 1 | Growth Rate (U2OS; [10]): 0
Cc1cnc(-c2cc(Cl)ccc2F)cc1-n1c(=O)n(CC(N)=O)c2cnccc21 [TP-008] |  | 0 | 1 | 0 | 1 | 1 |  |  | 0 | 0 | 1 |  | 0 |  |  |  |  | 1 | 1 | 1 | Growth Rate (Fibroblast; [10]): 0; Growth Rate (Fibroblast; [8]): 0; Growth Rate (U2OS; [10]): 0; Growth Rate (U2OS; [6]): 1; Growth Rate (HEK-293T; [10]): 1; Growth Rate (HEK-293T; [2]): 1; Growth Rate (HEK-293T; [4]): 1; Growth Rate (HEK-293T; [8]): 1
CN(C)CC[C@@H](c1ccc(Cl)cc1)c1ccccn1.O=C(O)/C=C\C(=O)O [DEXCHLORPHENIRAMINE MALEATE] | 0 | 1 |  | 1 | 0 | 1 | 0 | 0 | 1 | 0 | 1 | 0 | 0 | 1 | 1 | 1 | 1 | 1 |  | 0 | Growth Rate (Fibroblast; [8]): 0; Growth Rate (HEK-293T; [2]): 0
CN1CC(=O)N=C1NC(=O)Nc1cccc(Cl)c1 [FENOBAM ANHYDROUS] | 0 | 1 |  | 1 |  | 1 | 0 | 1 | 0 | 1 | 1 |  | 0 | 1 | 1 | 1 | 1 |  |  | 1 | Growth Rate (HEK-293T; [4]): 0; Growth Rate (HEK-293T; [6]): 0; Growth Rate (HEK-293T; [8]): 0
Clc1cc2c(NC3CCCC3)nnc(-c3ccncc3)c2cc1Cl | 0 | 1 |  | 1 |  | 1 | 1 | 1 | 1 | 0 | 0 | 1 | 1 |  | 1 | 1 | 1 | 0 | 0 |  | Growth Rate (U2OS; [6]): 1; Growth Rate (HEK-293T; [10]): 0
C[C@@H]1CCc2ncc(F)cc2[C@H]2CCCN2c2ccn3ncc(c3n2)C(=O)N1 [SELITRECTINIB] |  | 1 | 0 | 1 | 0 | 1 | 1 |  | 1 | 0 | 1 | 0 | 0 | 0 | 0 | 0 | 0 | 1 | 0 | 0 | Growth Rate (Fibroblast; [10]): 0; Growth Rate (Fibroblast; [2]): 0; Growth Rate (Fibroblast; [8]): 0; Growth Rate (HEK-293T; [10]): 1; Growth Rate (HEK-293T; [6]): 1
O=C(Nc1cccc2c(=O)cc(-c3nnn[nH]3)oc12)c1ccc(OCCCCc2ccccc2)cc1 | 0 | 0 | 1 | 0 | 1 | 0 | 1 |  | 0 | 0 | 1 | 0 | 1 | 0 | 0 | 0 | 0 | 0 | 0 |  | Growth Rate (Fibroblast; [10]): 1; Growth Rate (HEK-293T; [10]): 0; Growth Rate (HEK-293T; [2]): 1; Growth Rate (HEK-293T; [8]): 1
CCC1(C2=NCCN2)Cc2ccccc2O1 (stereo unspecified) [EFAROXAN] | 0 | 0 |  | 0 |  | 0 | 0 | 1 | 0 | 0 | 1 |  | 1 | 1 | 1 | 1 | 1 | 0 |  | 1 | Growth Rate (Fibroblast; [10]): 1; Growth Rate (U2OS; [10]): 1; Growth Rate (HEK-293T; [10]): 0
CO[C@H]1/C=C/O[C@@]2(C)Oc3c(C)c(O)c4c(O)c(c(/C=N/N5CCN(C)CC5)c(O)c4c3C2=O)NC(=O)/C(C)=C\C=C\[C@H](C)[C@H](O)[C@@H](C)[C@@H](O)[C@@H](C)[C@H](OC(C)=O)[C@@H]1C [RIFAMPIN] | 0 | 0 |  | 0 |  | 0 | 0 | 1 | 1 | 1 | 0 | 1 | 0 | 1 | 1 | 1 | 1 | 0 |  |  | 
O=C(c1ccc(F)c(F)c1Nc1ccc(I)cc1F)N1CC(O)([C@@H]2CCCCN2)C1 [COBIMETINIB] |  |  |  |  |  | 1 | 0 | 1 | 0 | 0 | 0 |  |  | 0 |  |  | 1 |  | 0 |  | Growth Rate (HEK-293T; [4]): 0; Growth Rate (HEK-293T; [6]): 1; Growth Rate (HEK-293T; [8]): 0
